Source: US10145848B2, “Small-molecule hydrophobic tagging of fusion proteins and induced degradation of same” (YALE UNIVERSITY, priority 2010, dated 2018)

Assays:
HA-HaloTag-H-RasG12V = biological target: T1, HA-HaloTag-H-RasG12V (Rhodococcus rhodochrous, UniProt P0A3G2, C176G/H272F/K175M/Y273L); experiment: Immunoblotting of HA-HaloTag-H-RasG12V in NIH-3T3 cells; type: cell-based; settings: 1 μM, 24 hours
T1 construct: The HaloTag protein was obtained from pHT2 vector (Promega); H-Ras carrying G12V (fusion partner, same polypeptide); expressed in transfected cells; host or cells: NIH-3T3, retroviral infection (pEYK3.1)
Procedure: (a) NIH-3T3 cells were retrovirally infected with a construct expressing either HA-HaloTag-HRas(G12V) or HA-HaloTag(D106A)-HRas(G12V). The cells were then treated with vehicle or 1 μM HyT13 for 24 hours. The lysates were prepared for immunoblotting and the blots were probed with anti-HA and anti-β-actin antibodies. (b) One hundred thousand NIH-3T3 cells infected with HA-HaloTag-HRas(G12V) or HA-HaloTag(D106A)-HRas(G12V) were plated in 10% FBS containing medium onto 10-cm plates. The next day, the medium was replaced with 1% FBS containing medium, along with vehicle or 1 μM HyT13. The media was refreshed every 2 days, and the plates were pictured on day 6. Bar, 5 mm. (c) Quantification of foci as described in (b). The number of foci/cm^2 was counted from three separate plates, with error bars representing SEM. […] Tumor size was measured daily, and the tumor volume was calculated. […]
The indicated cells were washed twice with cold PBS and the cells were lysed in lysis buffer (1×PBS, 1% NP-40, 1 mM EDTA, 40 mM HEPES) with protease inhibitors. […] The total protein concentration was determined by Bradford assay and 50 μg of protein was loaded onto an 8% Bis-Tris gel. […] The blots were processed by standard procedures with indicated antibodies, and the band intensities were quantified by ImageJ. […]

[1] = tested on: NIH-3T3 cells expressing HA-HaloTag-H-RasG12V; experiment: Tumor formation assay in nude mice; type: in vivo; settings: 25 mg/kg or 100 mg/kg daily IP
Procedure: One hundred thousand NIH-3T3 cells expressing HA-HaloTag-H-RasG12V were injected into the flank of anesthetized 6-week old female nu/nu nude mice (Charles River Laboratories). Two hours later, the mice were IP injected with either vehicle (10 μl, volume, with 5 μl, DMSO and 5 μl, of Cremophor EL), 25 mg/kg HyT13 or 100 mg/kg HyT13. The drug injections continued daily until the end of the experiment. Upon the appearance of tumors on day 7, the tumors were measured daily with calipers, and their volumes were calculated using the formula: a(b)^2/2, where a and b represent the longest and shortest diameters of the tumor, respectively.
To examine whether the HaloTag:HyT13 based system could be used in mouse models to relieve the H-RasG12V-driven tumor burden, we first evaluated the pharmacokinetics of HyT13. We performed a maximum tolerated dose experiment with HyT13 in nude mice at doses up to 100 mg/kg over a 14-day treatment regimen. […] Next, we sought to determine the serum bioavailability of HyT13 following injections. HyT13 was administered at 25 mg/kg by intraperitoneal (IP) injection into Swiss Webster mice and the serum was collected at 1 and 24 hours post-injection. At 1 hour post HyT13 administration the blood serum concentration was approximately 2 μM, and by 24 hours the HyT13 concentration had dropped to about 500 nM (FIG. 10). […]

[2] = tested on: NIH-3T3 cells infected with HA-HaloTag-H-RasG12V; experiment: Focus formation assay, HA-HaloTag-H-RasG12V cells; type: cell-based, mouse; settings: 1 μM, 1% FBS, day 6
Procedure: One hundred thousand NIH-3T3 cells infected with HA-HaloTag-H-RasG12V and HA-HaloTag(D106A)-H-RasG12V were plated onto 10-cm cell culture plates in 10% FBS with DMEM. The next day, the media was replaced with 1% FBS media and the cells were administered either vehicle or 1 μM HyT13. The media and the drug were replaced every two days. On day 6, the foci were photographed and counted as the number of distinct foci per 1-cm^2 area.
We next explored the functional utility of HaloTag-based degradation of an oncogene by HyT13 both in cell culture and in mice. The small GTPase H-Ras is one of the most commonly mutated genes in cancer, with up to […] of cancers harboring activating mutations in this gene^35. Activating mutations, such as the H-RasG12V allele, lead to decreased dependence on extracellular mitogenic signals. […] When H-RasG12V expressing cells are grown in culture under low serum conditions they lose cell-to-cell contact inhibition and form distinct foci instead of growing as a cellular monolayer. Furthermore, these transformed cells are capable of tumor formation when injected into immuno-compromised nude mice^36,37. We investigated whether (1) HaloTag-H-RasG12V driven focus formation can be suppressed in NIH-3T3 cells and (2) HaloTag-H-RasG12V driven tumor burden in mice can be reduced by administration of HyT13. […]

O=C(CC12CC3CC(CC(C3)C1)C2)NCCOCCOCCCCCCCl [HyT13, 2-((3r,5r,7r)-Adamantan-1-yl)-N-(2-(2-((6-chlorohexyl)oxy)ethoxy)ethyl)acetamide]
degradation of HA-HaloTag-H-RasG12V (HA-HaloTag-H-RasG12V): readily degraded | tumor size relative to vehicle treated mice (times smaller) [1]: 6 times | focus formation [2]: had grown a normal monolayer of cells
